Reference: patent publication US6517866B1 (Pfizer Inc., priority 1997, dated 2003)
Where “and” joins values, the source holds several entries; their conditions need not be identical. Identical values can stand only once. Counter-ions that a name gives are not always drawn. One block for each molecule: values may come before it.

What was measured:
[1] = Example 13: screening of excipients that inhibit precipitation or gelation of sertraline lactate when chloride is present; type: physicochemical; settings: sertraline lactate with excipient
[2] = Example 15: sertraline dissolution rate from packed powder in gastric buffer; type: physicochemical
[3] = Mechanical properties of compacts (compression, indentation hardness, moduli, tensile strength); type: physicochemical; settings: for Compression Stress / Solid Fraction: Compact Preparation; for Dynamic Indentation Hard. / Reduced Elastic Modulus: Dynamic Indentation; for Tensile Strength: Tensile Fracture
[4] = Example 10: solubility of sertraline hydrochloride in organic acid solutions; settings: water (no acid excipient), thermodynamic from solid
[5] = Example 1: plasma sertraline pharmacokinetics, 200 mg bolus vs 15 hr divided dosing; type: in vivo; settings: male, human, oral
[6] = tested on: healthy male human subjects; test: Example 1: side effect visual analogue scales and emesis; type: in vivo; settings: 15 hr divided dose regimen (15 subjects)
[7] = Example 2: plasma sertraline pharmacokinetics, 200 mg bolus vs 7 hr divided dosing; type: in vivo; settings: male, human, oral, mean
[8] = tested on: healthy male human subjects; test: Example 2: side effect visual analogue scales and emesis; type: in vivo; settings: 200 mg bolus dose group (n=14)
[9] = tested on: healthy male human subjects; settings: Study I
[10] = tested on: healthy male human subjects; test: Example 6 Study II: emesis, regurgitation and PK/PD plots

Molecule: O=C1O[C@H]([C@@H](O)CO)C(O)=C1O [Ascorbic acid]
Observation After NaCl Addition ([1]; NaCl 100 mM): precipitate

Molecule: CCCCCCCCCCCCCCCC(=O)OC[C@H](O)[C@H]1OC(=O)C(O)=C1O [Ascorbyl palmitate]
Sertraline Dissolution Rate ([2]; excipient 6.8, no acid, lactose 74.2, lactate 19 wt %): 4.3 mg/ml-min

Molecule: N[C@@H](Cc1c[nH]cn1)C(=O)O [Histidine]
Final Sertraline Concentration ([1]; NaCl 150 mM): 110 mg/mL | Observation After NaCl Addition ([1]; NaCl 150 mM): slight precipitate

Molecule: CCCCCCCCCCCC(=O)OCC(O)CO (stereo not shown) [Imwitor ® 312, Glyceryl Monolaurate]
Sertraline Dissolution Rate ([2]; excipient 5.0, ascorbic 49.5, lactose 12.5, CaCO3 5, lactate 14 wt %): 20.9 mg/ml-min | Sertraline Dissolution Rate ([2]; excipient 6.8, aspartic 74.2, lactate 19 wt %): 5.3 mg/ml-min

Molecule: CCCCCCCC/C=C\CCCCCCCC(=O)OCC(O)CO (stereo not shown) [Myrerol ® (18-99), Glyceryl Monooleate]
Sertraline Dissolution Rate ([2]; excipient 5.0, ascorbic 49.5, lactose 12.5, lactate 14 wt %): 6.4 mg/ml-min

Molecule: Sertraline acetate
elastic modulus (in words) [3]: relatively low | Compression Stress [3]: 36.7 (2.5) Mpa | Solid Fraction [3]: 0.831 | Dynamic Indentation Hard. [3]: 60.0 (0.4) Mpa | Reduced Elastic Modulus [3]: 5.1 (0.5) GPa | Quasistatic Indentation Hard. ([3]; Quasistatic Indentation): 25.1 (1.3) Mpa | Shear Modulus ([3]; Quasistatic Indentation): 99.9 (19.1) Mpa | Tensile Strength [3]: 0.52 (0.03) Mpa | ductility (in words) ([3]; from dynamic indentation hardness): high (dynamic indentation hardness values below 100 Mpa are high)

The next lines start with results.

Sertraline Dissolution Rate ([2]; excipient 5.0, ascorbic 49.5, lactose 12.5, CaCO3 1.0, lactate 14 wt %): 8.0 mg/ml-min
Molecule: CCCCCCCCCCCCCCCCCC(=O)OCC(O)CO (stereo not shown) [Imwitor ® 191, Glyceryl Monostearate]

tensile strength (in words) [3]: very high | Compression Stress [3]: 52.8 (0.7) Mpa | Solid Fraction [3]: 0.862 | Dynamic Indentation Hard. [3]: 81.6 (1.6) Mpa | Reduced Elastic Modulus [3]: 7.4 (0.6) GPa | Elastic Modulus ([3]; Quasistatic Indentation): 2.0 (0.2) Gpa | Quasistatic Indentation Hard. ([3]; Quasistatic Indentation): 31.1 (1.4) Mpa | Shear Modulus ([3]; Quasistatic Indentation): 113.9 (4.6) Mpa | Tensile Strength [3]: 0.56 (0.02) Mpa | Sertraline Dissolution Rate ([2]; no candidate excipient, ascorbic 51.0, lactose 20, lactate 14 wt %): 3.5 mg/ml-min | Sertraline Dissolution Rate ([2]; sertraline lactate 100 wt %, no excipient): 0.9 mg/ml-min
Molecule: CN[C@H]1CC[C@@H](c2ccc(Cl)c(Cl)c2)c2ccccc21.C[C@H](O)C(=O)O [Sertraline L-lactate]

solubility [4]: 25 mg/mL
Molecule: CN[C@H]1CC[C@@H](c2ccc(Cl)c(Cl)c2)c2ccccc21 [Sertraline hydrochloride]

Cmax [5]: 0.032 µg/mL | Tmax [5]: 16 h | Tmax ([7]; 25 mg per hr for 7 hr): 10.4 h | Cmax ([7]; 25 mg solution per hr for 7 hr (eight doses, 200 mg)): 0.046 µg/mL | PK/PD plot of average nausea score vs plasma sertraline concentration (FIG. 6) ([9]; 200 mg bolus dose): clockwise hysteresis | diarrhea score vs plasma sertraline concentration curve ([9]; 200 mg bolus dose): clockwise hysteresis | time of maximum diarrhea score ([9]; post-dose): 3 h
Molecule: CN[C@H]1CC[C@@H](c2ccc(Cl)c(Cl)c2)c2ccccc21 [Sertraline]
emetic episodes [6]: no emetic episodes | emetic events [8]: 4 | subjects who exhibited regurgitation ([10]; 200 mg dose group): four | subjects with emesis ([10]; 200 mg dose group): Four | time of emesis in individual subjects ([10]; 200 mg dose group): 2.6 h and 2.8 h and 3.8 h | individual PK/PD plots for regurgitation ([10]; the four subjects with regurgitation): clockwise hysteresis

Sertraline Dissolution Rate ([2]; Span 60 5.0, ascorbic 51.0, lactose 15, lactate 14 wt %): 9.5 mg/ml-min
Molecule: Span ® 60
